Measured values from US9845291B2, “Estrogen receptor modulators and uses thereof” (Genentech, Inc., priority 2014, dated 2017).

Molecular target: estrogen receptor alpha (ESR1) (Homo sapiens, UniProt P03372)
Test: cell-based
Conditions: for ER-alpha MCF7 HCS Sinf: MCF7 breast cancer cells, 4 hours, plateau of the maximal effect, DMSO and Fulvestrant define 0% and 100% changes in ESR1
Protocol: Where more than one name is associated with a Formula I compound or intermediate, the chemical structure shall define the compound.
Cell plates were incubated at 37° C., for 4 hours. Fixation and permeabilization were carried out using a Biotek EL406 plate washer and dispenser as follows. […] Samples were incubated 30 minutes. Well contents was aspirated and 50 ul/well of Phosphate Buffered Saline (PBS) containing 0.5% w/v bovine serum albumen, 0.5% v/v Triton X-100 (Antibody Dilution Buffer) was added to each well. Samples were incubated for 30 minutes. Well contents were aspirated and washed 3 times with 100 ul/well of PBS. Immunofluorescence staining of estrogen receptor alpha (ESR1) was carried out using a Biotek EL406 plate washer and dispenser as follows. […] Samples were incubated for 2 hours at room temperature. Samples were washed 4 times with 100 ul/well of PBS. […] Samples were incubated for 2 hours at room temperature. Samples were washed 3 times with 100 ul/well of PBS using a Biotek EL406. Quantitative fluorescence imaging of ESR1 was carried out using a Cellomics Arrayscan V (Thermo). […] Channel 1 (DNA stain) was used to define the nuclear region (Circ). […] Data analysis was carried out using Genedata Screener Software, with DMSO and 5 nM Fulvestrant treated samples being used to define the 0% and 100% changes in ESR1. The “Robust Fit” method was used to define the inflexion point of curve (EC50) and the plateau of the maximal effect (Sin f).

estrogen receptor alpha (ESR1), sequence (P03372 whole entry): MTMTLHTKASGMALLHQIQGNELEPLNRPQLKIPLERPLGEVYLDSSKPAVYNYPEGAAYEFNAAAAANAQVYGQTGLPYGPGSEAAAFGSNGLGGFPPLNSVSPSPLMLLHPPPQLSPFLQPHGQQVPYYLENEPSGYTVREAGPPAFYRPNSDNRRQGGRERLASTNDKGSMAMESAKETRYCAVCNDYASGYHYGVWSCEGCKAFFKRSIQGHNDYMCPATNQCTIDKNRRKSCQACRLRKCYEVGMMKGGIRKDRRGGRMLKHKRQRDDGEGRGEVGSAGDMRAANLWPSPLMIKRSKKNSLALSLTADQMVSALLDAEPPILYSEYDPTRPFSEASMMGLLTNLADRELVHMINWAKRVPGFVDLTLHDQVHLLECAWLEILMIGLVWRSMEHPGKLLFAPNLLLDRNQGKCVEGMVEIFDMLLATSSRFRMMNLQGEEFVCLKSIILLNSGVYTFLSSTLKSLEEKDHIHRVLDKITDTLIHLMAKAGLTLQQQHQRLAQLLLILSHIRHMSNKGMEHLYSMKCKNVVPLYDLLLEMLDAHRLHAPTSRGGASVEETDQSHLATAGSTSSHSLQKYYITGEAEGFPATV

| Structure (SMILES) | EC50 | ER-alpha MCF7 HCS Sinf |
| --- | --- | --- |
| O=C(c1ccc(OCCN2CC(CF)C2)c(F)c1)c1c(-c2ccccc2Cl)nsc1-c1ccc(O)cc1 [Example 72, [3-(2-Chloro-phenyl)-5-(4-hydroxy-phenyl)-isothiazol-4-yl]-{3-fluoro-4-[2-(3-fluoromethyl-azetidin-1-yl)-ethoxy]-phenyl}-methanone] | 0.0159 nM | −99.0% |
| O=C(c1ccc(OCCN2CC[C@@H](CF)C2)c(F)c1)c1c(-c2ccccc2Cl)noc1-c1ccc(O)cc1 [Example 73, [3-(2-chlorophenyl)-5-(4-hydroxyphenyl)isoxazol-4-yl]-[3-fluoro-4-[2-[(3R)-3-(fluoromethyl)pyrrolidin-1-yl]ethoxy]phenyl]methanone] | 0.123 nM | −97.6% |
| Oc1ccc2c(c1)C1=C(c3cc(O)ccc3OCC1)[C@H](c1ccc(OCCN3CC(CF)C3)cc1)O2 [Example 74, (S)-8-(4-(2-(3-(fluoromethyl)azetidin-1-yl)ethoxy)phenyl)-1,8-dihydro-2H-benzo[2,3]oxepino[4,5-c]chromene-6,12-diol] | 0.19 nM | −93.3% |
| Oc1ccc2c(c1)C1=C(c3cc(O)ccc3OCC1)[C@@H](c1ccc(OCCN3CC(CF)C3)cc1)O2 [Example 75, (R)-8-(4-(2-(3-(fluoromethyl)azetidin-1-yl)ethoxy)phenyl)-1,8-dihydro-2H-benzo[2,3]oxepino[4,5-c]chromene-6,12-diol] | 3.2 nM | −99.7% |
| C[C@@H](COc1ccc(C(=O)c2c(-c3ccccc3Cl)noc2-c2ccc(O)cc2)cc1F)N1CC[C@@H](CF)C1 [Example 76, [3-(2-chlorophenyl)-5-(4-hydroxyphenyl)isoxazol-4-yl]-[3-fluoro-4-[(2S)-2-[(3R)-3-(fluoromethyl)pyrrolidin-1-yl]propoxy]phenyl]methanone] | 0.091 nM | −101% |
| Oc1ccc2c(c1)O[C@H](c1ccc(OCCN3CC(CF)C3)cc1)C1=C2CCOc2ccc(O)cc21 [Example 77, (R)-8-(4-(2-(3-(fluoromethyl)azetidin-1-yl)ethoxy)phenyl)-2,8-dihydro-1H-benzo[2,3]oxepino[4,5-c]chromene-6,11-diol] | 9.59 nM | −84.5% |
| Oc1ccc2c(c1)O[C@@H](c1ccc(OCCN3CC(CF)C3)cc1)C1=C2CCOc2ccc(O)cc21 [Example 78, (S)-8-(4-(2-(3-(fluoromethyl)azetidin-1-yl)ethoxy)phenyl)-2,8-dihydro-1H-benzo[2,3]oxepino[4,5-c]chromene-6,11-diol] | 0.611 nM | −90.0% |
| CS(=O)(=O)c1ccc(-c2ccc3c(F)c(O)ccc3c2Oc2ccc(OCCN3CC[C@@H](CF)C3)cc2)cc1 [Example 79, (R)-1-fluoro-5-(4-(2-(3-(fluoromethyl)pyrrolidin-1-yl)ethoxy)phenoxy)-6-(4-(methylsulfonyl)phenyl) naphthalen-2-ol] | 0.072 nM | −89.6% |
| CC/C(=C(/c1ccc(OCCN2CC(CF)C2)cc1)c1ccc2[nH]ncc2c1)c1ccc(F)cc1Cl [Example 82, 5-[(E)-2-(2-chloro-4-fluoro-phenyl)-1-[4-[2-[3-(fluoromethyl)azetidin-1-yl]ethoxy]phenyl]but-1-enyl]-1H-indazole] | 0.0225 nM | −96.9% |
